The IC50 is the concentration that inhibits the measured activity by half. By EC50 is commonly meant the concentration giving half of the maximal effect. By AC50 is commonly meant the concentration at which the activity in the assay is half-maximal.

IC50, EC50 and AC50 data for 7 compounds are collected here from ChEMBL document CHEMBL1201862, “PubChem BioAssay data set” (2004).

Assay [1] has as its target T1, Mannose-6-phosphate isomerase (Homo sapiens, UniProt P34949).
T1 sequence (P34949 whole entry): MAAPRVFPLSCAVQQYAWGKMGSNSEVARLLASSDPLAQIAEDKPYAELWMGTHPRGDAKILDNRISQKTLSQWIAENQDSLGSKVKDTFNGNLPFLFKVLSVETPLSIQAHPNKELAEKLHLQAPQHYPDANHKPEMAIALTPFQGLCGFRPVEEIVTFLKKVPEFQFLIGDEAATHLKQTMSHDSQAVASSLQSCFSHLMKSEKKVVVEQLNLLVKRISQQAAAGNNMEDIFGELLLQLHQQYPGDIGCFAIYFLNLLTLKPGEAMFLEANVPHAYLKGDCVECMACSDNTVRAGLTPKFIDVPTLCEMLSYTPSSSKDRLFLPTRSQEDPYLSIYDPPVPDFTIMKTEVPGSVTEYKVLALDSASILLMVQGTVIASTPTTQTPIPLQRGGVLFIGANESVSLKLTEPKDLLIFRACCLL
The assay can be described thus: phosphomannose isomerase inhibition – biochemical, fluorescence intensity, confirmation (AID 1535).

Another assay concerns the target Phosphomannomutase 2 (Homo sapiens, UniProt O15305). The assay can be described thus: Counter screen SAR assay for PMM2 inhibitors via a fluorescence intensity assay. [Related pubchem assays (depositor defined):AID1545, AID1574]. In general terms: The purpose of a counterscreen is to sort out artefacts and off-target activity.
Assay [2] can be described thus: Luminescence Cell-Based/Microorganism Confirmation at Dose of Inhibitors of Trypanosoma cruzi Infection. [Related pubchem assays: 1885, 1968 ]. It is filed as functional.
A short description of assay [3]: Trypanosoma cruzi growth suppression in host cells – NIH3T3 host cells, beta-gal luminescence, confirmation (AID 2044).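 Note: intracellular parasites grown in NIH/3T3 mouse fibroblasts as host cells; luminescent beta-galactosidase reporter signal from transgenic T. cruzi replicating inside host cells; inhibitors lower the luminescence signal.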 The format is functional, cell-based.
Assay [4] is described as follows: Luminescence Cell-Based Secondary HTS screen to identify cytotoxic compounds of NIH3T3 cells. [Related pubchem assays: 1885, 1968 ]. The format is functional.
A short description of assay [5]: NIH3T3 cell viability loss – ATP luminescence, mouse fibroblasts, counter-screen, dose response (AID 2010).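 Note: cells exposed to compound for about 90 hours before reading.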 It is filed as functional, cell-based.
Assay [6] is described as follows: T. cruzi infection blockers in NIH3T3 cells – beta-gal luminescence, NIH3T3 host cells, confirmation (AID 2630). It is filed as functional, cell-based. Particulars: Mus musculus.
The next assay addresses CAAX prenyl protease 1 (Saccharomyces cerevisiae S288c, UniProt P47154). The assay can be described thus: yeast CAAX protease Ste24 inhibition – biochemical, S. cerevisiae, plate reader, cherry-pick, dose response (AID 488815).
A further assay concerns the target T2, CAAX prenyl protease 2 (Homo sapiens, UniProt Q9Y256).
T2 sequence (Q9Y256 whole entry): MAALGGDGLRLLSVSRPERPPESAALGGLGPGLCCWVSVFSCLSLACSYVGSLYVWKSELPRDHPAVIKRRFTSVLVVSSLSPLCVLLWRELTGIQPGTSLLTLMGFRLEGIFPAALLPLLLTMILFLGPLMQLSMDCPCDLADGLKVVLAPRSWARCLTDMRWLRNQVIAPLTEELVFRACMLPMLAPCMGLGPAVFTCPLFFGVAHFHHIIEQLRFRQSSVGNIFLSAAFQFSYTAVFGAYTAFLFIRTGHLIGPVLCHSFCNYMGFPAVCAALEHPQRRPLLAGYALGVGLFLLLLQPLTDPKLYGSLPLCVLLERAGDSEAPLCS
Put plainly: inhibition of Ras-converting CAAX protease Rce1 – biochemical, yeast membranes, quenched-peptide fluorescence, cherry-pick, dose response (AID 588849).

The subject of the next assay is Jurkat. The assay can be described thus: SAR Analysis of small molecule inhibitors of […] specific antigen receptor-induced NF-kB activation in a Jurkat cell line using a luminescence assay - Set 3. [Related pubchem assays (depositor defined):AID435022, AID435025, AID465]. The format is functional, cell-based. Particulars: Homo sapiens.
Assay [7] relates to HEK293. The assay can be described thus: SAR Analysis of small molecule inhibitors of B-cell specific antigen receptor-induced NF-kB activation in a HEK-293T cell line using a luminescence assay - Set 2. [Related pubchem assays (depositor defined):AID435022, AID435025, AID489021]. It is filed as functional, cell-based. Particulars: Homo sapiens.
For assay [8], the system named is HEK293. The assay can be described thus: HEK293T cell viability loss, resazurin readout – resazurin fluorescence, cytotoxicity control for NF-kB activator project, SAR follow-up (AID 493251). The format is functional, cell-based. Particulars: Homo sapiens. In general terms: Alamar Blue is a resazurin reagent that responds to reducing activity.
Assay [9] in a line: NIH-3T3 fibroblast cytotoxicity, dose response, cytotoxicity control, cell-based, fluorescence, Alamar Blue, secondary assay (AID 2327).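 Note: NIH-3T3 mouse fibroblasts cultured with fluconazole at 8 µg/mL.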 The format is functional.
The target of assay [10] is E3 ubiquitin-protein ligase Mdm2 (Homo sapiens, UniProt Q00987). Put plainly: MDM2-luc reporter signal enhancers, multi-concentration potency testing, MDM2 ubiquitin-protein ligase inhibitor program, whole-cell format, luminescence detection, 384-well microplate (AID 1394).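 Note: MDM2 E3 inhibitors raise luminescence so EC50 is for signal enhancement.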 The format is functional.
E3 ubiquitin-protein ligase Mdm2, sequence (Q00987 whole entry): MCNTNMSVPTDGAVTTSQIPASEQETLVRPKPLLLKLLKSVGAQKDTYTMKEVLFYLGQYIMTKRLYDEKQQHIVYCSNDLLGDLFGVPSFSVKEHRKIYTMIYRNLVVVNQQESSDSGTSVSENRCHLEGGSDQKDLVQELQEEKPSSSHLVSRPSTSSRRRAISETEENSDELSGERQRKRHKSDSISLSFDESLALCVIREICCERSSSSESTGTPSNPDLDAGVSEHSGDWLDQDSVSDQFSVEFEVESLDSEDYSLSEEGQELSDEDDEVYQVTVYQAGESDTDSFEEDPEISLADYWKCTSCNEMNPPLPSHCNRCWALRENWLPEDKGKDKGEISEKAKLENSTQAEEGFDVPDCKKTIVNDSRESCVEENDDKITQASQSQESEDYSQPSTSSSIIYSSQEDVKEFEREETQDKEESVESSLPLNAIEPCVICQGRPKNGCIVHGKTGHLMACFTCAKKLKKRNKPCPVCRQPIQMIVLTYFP
Assay [11] is described as follows: fluconazole-exposed Candida albicans growth modulators – fluorescence, retest, confirmation (AID 2467). The format is functional, cell-based.
Assay [12] concerns the target T3, Serine/threonine-protein phosphatase (Candida dubliniensis (strain CD36 / CBS 7987 / NCPF 3949 / NRRLY-17841) (Yeast), UniProt B9W6M3).
T3 sequence (B9W6M3 whole entry): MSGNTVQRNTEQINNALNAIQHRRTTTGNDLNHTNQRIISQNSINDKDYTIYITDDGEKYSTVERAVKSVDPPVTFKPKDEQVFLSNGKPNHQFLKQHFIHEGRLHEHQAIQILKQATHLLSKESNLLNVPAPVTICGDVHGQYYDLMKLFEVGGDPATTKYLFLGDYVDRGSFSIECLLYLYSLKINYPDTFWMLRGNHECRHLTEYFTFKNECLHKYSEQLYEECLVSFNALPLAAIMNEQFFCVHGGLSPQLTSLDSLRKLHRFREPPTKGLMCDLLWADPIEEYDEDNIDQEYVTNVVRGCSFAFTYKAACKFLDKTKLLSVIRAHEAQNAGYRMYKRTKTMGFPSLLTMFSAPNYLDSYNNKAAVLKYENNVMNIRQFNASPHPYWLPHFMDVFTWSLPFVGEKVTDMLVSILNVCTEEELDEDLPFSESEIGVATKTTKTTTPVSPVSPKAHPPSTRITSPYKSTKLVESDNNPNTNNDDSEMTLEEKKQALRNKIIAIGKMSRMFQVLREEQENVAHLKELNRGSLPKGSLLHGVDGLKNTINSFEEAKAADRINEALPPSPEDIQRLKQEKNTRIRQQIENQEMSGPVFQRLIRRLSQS
The assay can be described thus: blockers of CaCl2-induced CDRE-lacZ signaling – S. cerevisiae, luminescence, secondary, dose response (AID 2388).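 Note: yeast reporter cells carrying a calcineurin-responsive lacZ construct stimulated with calcium chloride; luminescent beta-galactosidase reporter signal in whole cells rather than isolated phosphatase activity; potency for inhibition where a drop in reporter signal means calcineurin blockade.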 It is filed as functional, cell-based.

A further assay concerns the target T4, Estrogen receptor (Homo sapiens, UniProt P03372).
T4 sequence (P03372 whole entry): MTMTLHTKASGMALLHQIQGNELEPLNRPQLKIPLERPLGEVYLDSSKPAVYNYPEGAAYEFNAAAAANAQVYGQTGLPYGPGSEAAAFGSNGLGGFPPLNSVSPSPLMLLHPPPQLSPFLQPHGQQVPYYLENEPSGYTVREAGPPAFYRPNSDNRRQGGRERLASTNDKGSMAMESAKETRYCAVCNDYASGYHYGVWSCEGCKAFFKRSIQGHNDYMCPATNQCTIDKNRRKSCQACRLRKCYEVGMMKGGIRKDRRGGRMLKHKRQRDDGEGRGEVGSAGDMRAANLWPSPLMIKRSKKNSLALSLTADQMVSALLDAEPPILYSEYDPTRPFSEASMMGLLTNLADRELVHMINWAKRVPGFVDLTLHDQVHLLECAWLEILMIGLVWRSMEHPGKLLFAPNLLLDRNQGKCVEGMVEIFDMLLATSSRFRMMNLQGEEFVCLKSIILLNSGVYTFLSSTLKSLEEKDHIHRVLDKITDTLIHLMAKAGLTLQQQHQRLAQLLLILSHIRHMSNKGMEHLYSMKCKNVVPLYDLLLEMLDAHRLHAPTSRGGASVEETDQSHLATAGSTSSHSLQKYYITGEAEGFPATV
The assay can be described thus: ERα coactivator recruitment enhancers – biochemical, TR-FRET, ERα LBD, dose response (AID 737). (In general: Time-resolved FRET reads energy transfer from a long-lived donor to a nearby acceptor.)

Assay [13] relates to HEK293. The assay can be described thus: EBV LMP1 TES2 canonical NF-kB signalling blockers – cell-based, HEK293, luciferase, cherry-pick, dose response (AID 588343). It is filed as functional. Particulars: Homo sapiens.
Assay [14] concerns the target Heat shock protein HSP 90-alpha (Homo sapiens, UniProt P07900). It is filed as functional, organism-based.
The target in assay [15] is T3, Serine/threonine-protein phosphatase. Put plainly: Fluorescence Cell-Based Secondary Assay to Identify Inhibitors of Calcineurin. [Related pubchem assays (depositor defined):AID1979, AID2007]. It is filed as functional.
A further assay concerns INS1. The assay can be described thus: INS-1E survival protection against cytokine death – cell-based, luminescence, retest, dose response (AID 449756).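 Note: cell death triggered by IL-1 beta plus TNF-alpha plus IFN-gamma mixture; protective hits raise ATP signal compared with cytokine alone wells.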 Particulars: Rattus norvegicus. It is filed as functional.
In assay [16] the target is ATP-dependent molecular chaperone HSP82 (Candida albicans (strain WO-1) (Yeast), UniProt C4YTQ8). The assay can be described thus: steroid-induced GRE reporter decrease in yeast – S. cerevisiae, luminescence, Hsp90 inhibitor project, dose response (AID 2400).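 Note: beta-galactosidase luminescence from glucocorticoid response element reporter as proxy for Hsp90 function; inhibitor potency where signal loss means Hsp90 inhibition.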 The format is functional, cell-based.
ATP-dependent molecular chaperone HSP82, sequence (C4YTQ8 whole entry): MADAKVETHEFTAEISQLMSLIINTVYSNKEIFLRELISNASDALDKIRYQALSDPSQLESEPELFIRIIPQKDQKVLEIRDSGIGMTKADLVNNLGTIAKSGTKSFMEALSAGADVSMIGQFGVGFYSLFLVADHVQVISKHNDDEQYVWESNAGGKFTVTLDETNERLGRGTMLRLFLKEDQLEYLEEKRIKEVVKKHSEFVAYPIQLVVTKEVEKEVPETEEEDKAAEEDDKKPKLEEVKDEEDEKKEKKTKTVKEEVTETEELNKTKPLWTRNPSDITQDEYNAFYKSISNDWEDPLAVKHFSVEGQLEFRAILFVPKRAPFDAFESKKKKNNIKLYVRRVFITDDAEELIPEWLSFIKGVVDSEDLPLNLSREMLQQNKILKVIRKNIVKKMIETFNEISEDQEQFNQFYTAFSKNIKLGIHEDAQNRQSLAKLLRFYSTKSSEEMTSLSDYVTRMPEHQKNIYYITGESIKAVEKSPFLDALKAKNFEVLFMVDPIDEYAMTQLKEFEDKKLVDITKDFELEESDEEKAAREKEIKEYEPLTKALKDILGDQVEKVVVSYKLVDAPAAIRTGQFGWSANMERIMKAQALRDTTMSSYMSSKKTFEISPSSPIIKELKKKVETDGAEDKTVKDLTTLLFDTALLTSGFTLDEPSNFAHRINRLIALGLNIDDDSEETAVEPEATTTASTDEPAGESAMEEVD
The nature of assay [17]: reduction of Shn3 3'UTR-driven luciferase in osteoblasts – cell-based, Clone20 osteoblasts, firefly luciferase, cherry-picked, dose response (AID 624132).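 Note: firefly luciferase luminescence from reporter carrying the Shn3 3'UTR in osteoblasts.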 The format is functional.
A short description of assay [18]: mammalian cell viability loss – Alamar Blue, dry powder, cytotoxicity control for antifungal single agent project, dose response (AID 602188). The format is functional, cell-based.
A short description of assay [19]: loss of viability in HepG2 cells – cell-based, CellTiter-Glo, cherry-picked, cytotoxicity control for Shn3 inhibitor project, dose response (AID 624134). It is filed as functional.
A short description of assay [20]: non-specific 3'UTR reporter inhibition in Clone20-Shn3RL – cell-based, Renilla luciferase, cherry-picked, counter-screen for Shn3 inhibitor project, dose response (AID 624133). The format is functional.
The target in assay [21] is T5, Endoribonuclease toxin MazF (Escherichia coli K-12, UniProt P0AE70).
T5 sequence (P0AE70 whole entry): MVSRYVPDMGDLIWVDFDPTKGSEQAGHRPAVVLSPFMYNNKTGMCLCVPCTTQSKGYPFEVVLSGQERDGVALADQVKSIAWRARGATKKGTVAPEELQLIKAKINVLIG
Put plainly: activation of MazEF endoribonuclease cleavage – biochemical, fluorescence, single-stranded RNA substrate, uHTS hits, dose response (AID 588481). The format is functional.

The target of assay [22] is UDP-galactopyranose mutase (Mycobacterium tuberculosis, UniProt P9WIQ1). The assay can be described thus: Inhibitors of Mycobacterium tuberculosis UDP-galactopyranose mutase (UGM) enzyme Measured in Biochemical System Using Plate Reader - 2105-02_Inhibitor_Dose_CherryPick_Activity. [Related pubchem assays (depositor defined):AID504439].
UDP-galactopyranose mutase, sequence (P9WIQ1 whole entry): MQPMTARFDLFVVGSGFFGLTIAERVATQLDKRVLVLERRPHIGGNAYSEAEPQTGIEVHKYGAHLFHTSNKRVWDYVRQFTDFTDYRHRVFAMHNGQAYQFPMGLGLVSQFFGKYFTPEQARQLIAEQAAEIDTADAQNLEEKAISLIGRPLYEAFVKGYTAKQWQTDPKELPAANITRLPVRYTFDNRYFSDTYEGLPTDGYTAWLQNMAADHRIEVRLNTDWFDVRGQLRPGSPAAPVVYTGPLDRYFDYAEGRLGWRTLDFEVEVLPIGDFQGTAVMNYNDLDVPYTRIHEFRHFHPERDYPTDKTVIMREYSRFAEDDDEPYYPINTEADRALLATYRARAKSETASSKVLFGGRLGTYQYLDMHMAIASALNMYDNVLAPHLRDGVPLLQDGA
In assay [23] the target is T5, Endoribonuclease toxin MazF. The assay can be described thus: substrate-only fluorescence increase artefacts – biochemical, single-stranded RNase substrate, counter-screen for MazEF activator project, dose response (AID 588502). The format is functional.
Assay [24] in a line: restored growth of temperature-sensitive Burl-1 yeast – whole organism, S. cerevisiae, Burl-1 ts mutant, luminescence, counter-screen for SUMOylation pathway inhibitor project, dose response (AID 463199). It is filed as functional.

Active and inactive are the calls of the source.

Phosphomannomutase 2, sequence (O15305 whole entry): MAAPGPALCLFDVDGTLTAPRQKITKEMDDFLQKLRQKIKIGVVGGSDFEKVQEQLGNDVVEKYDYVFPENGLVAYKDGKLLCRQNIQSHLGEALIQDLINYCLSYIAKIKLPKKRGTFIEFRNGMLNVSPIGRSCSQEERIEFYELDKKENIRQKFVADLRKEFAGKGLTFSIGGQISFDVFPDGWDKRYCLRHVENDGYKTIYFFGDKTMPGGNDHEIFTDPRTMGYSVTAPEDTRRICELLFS
CAAX prenyl protease 1, sequence (P47154 whole entry): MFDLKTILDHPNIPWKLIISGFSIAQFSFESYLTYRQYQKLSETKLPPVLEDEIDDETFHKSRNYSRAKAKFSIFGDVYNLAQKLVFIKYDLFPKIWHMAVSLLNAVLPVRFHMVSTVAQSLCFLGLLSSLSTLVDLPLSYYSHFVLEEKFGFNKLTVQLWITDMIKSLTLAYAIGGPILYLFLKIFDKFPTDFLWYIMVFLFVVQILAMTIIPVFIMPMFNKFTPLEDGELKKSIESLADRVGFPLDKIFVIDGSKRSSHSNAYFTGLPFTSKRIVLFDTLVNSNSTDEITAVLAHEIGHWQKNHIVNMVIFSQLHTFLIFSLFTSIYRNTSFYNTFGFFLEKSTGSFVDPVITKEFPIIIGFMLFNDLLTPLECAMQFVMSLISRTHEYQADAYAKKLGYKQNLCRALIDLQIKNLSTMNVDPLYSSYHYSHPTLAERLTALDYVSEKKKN

Turning to `Cc1cccc(/N=c2\ssnc2Cl)c1`, the IC50 (in [1]; on Phosphomannomutase 2) was > 100 µM (inactive) throughout.

Regarding `CC(C)Oc1cccc(C(=O)C2CCCN(Cc3cnc(N4CCCC4)s3)C2)c1` (stereo not given), the EC50 is 0.606 µM (active) in assay [2]; 0.14 µM (active) in assay [3]; 63.8 µM (active) in [4]; > 60 µM (not active) in assay [5]; 0.607 µM (active) in [6].

For `CCOc1cccc(-c2nn(-c3ccccc3)cc2/C=C(/C#N)C(=O)NCCCn2ccnc2)c1`, the half-maximal activity concentration (AC50) at CAAX prenyl protease 1 was 7.93 µM (active); at CAAX prenyl protease 2, 22.3 µM (active).

Take `CCOc1ccccc1NC(=O)CCc1nc(-c2ccc(C(C)(C)C)cc2)no1`: the IC50 in the assay with Jurkat was 1.02 µM (active); with HEK293 [7], 0.46 µM (active); in the assay on HEK293 [8], > 80 µM (inactive).

`O=C(Nc1nc(-c2ccccn2)cs1)c1ccc(Br)s1`: the EC50 in assay [9] is > 160 µM (inactive); in assay [10], 22.7 µM (not active); in [11], 1.81 µM (active); in [12] it was > 180 µM (inactive); on Estrogen receptor it was 24.5 µM (not active); in assay [15], 15.7 µM (active). Moreover, in [16], the EC50 was 4.31 µM (active). Also, the AC50 was 0.637 µM (active) in the assay with HEK293 [13]; 1.83 µM (active) in assay [14]; 1.03 µM (active) in the assay on INS1; 1 µM (active) in assay [17]; 0.991 µM (active) in assay [18]; 3.78 µM (active) in [19]. Besides, in assay [20], the AC50 was 0.743 µM (active).

`Cc1cccc(N2C(=O)NC(=O)/C(=C/c3cc4c(cc3[N+](=O)[O-])OCO4)C2=O)c1`: the EC50 in assay [21] and in [23] was > 99 µM (inactive) in each case. The AC50 in assay [22] is 45 µM (active).

Take `O=C1CC(c2ccccc2)C(=O)N1c1cccc(O)c1` (stereo not given): in [24], the AC50 was 53.6 µM (active).
